Data set [1] can be described thus: Inhibition of Hepatitis C virus genotype 1a NS3/4A protease using Ac-DE-Dap(QXL520)-EE-Abu-psi-COO]-AS-C(5-FAMsp)-NH2 as substrate by FRET analysis. Details: species or system Hepatitis C virus subtype 1a.
Data set [2] deals with Hepatitis C virus. Briefly: Antiviral activity against Hepatitis C virus genotype 1b infected in HuH7 cells. In kind it is functional, organism-based, Hepacivirus hominis. To be noted: Huh-7.
Data set [3] has as its system Hepatitis C virus. Nature of the data set: Antiviral activity against Hepatitis C virus genotype 1a infected in HuH7 cells. The format is functional, organism-based, Hepacivirus hominis. To be noted: subtype 1a, Huh-7.
Data set [4] relates to Hepatitis C virus. Briefly: Antiviral activity against Hepatitis C virus genotype 1b expressing wild type NS3/4A protease infected in HuH7 cells. In kind it is functional, organism-based, Hepacivirus hominis. To be noted: Huh-7.
Data set [5] deals with Hepatitis C virus. Briefly: Antiviral activity against Hepatitis C virus genotype 1b expressing NS3/4A protease A156S mutant infected in HuH7 cells. To be noted: Huh-7. The format is functional, organism-based, Hepacivirus hominis.
Data set [6] relates to Hepatitis C virus. Briefly: Antiviral activity against Hepatitis C virus genotype 1b expressing NS3/4A protease A156T mutant infected in HuH7 cells. The format is functional, organism-based, Hepacivirus hominis. Conditions: Huh-7.
Data set [7] concerns Hepatitis C virus. Briefly: Antiviral activity against Hepatitis C virus genotype 1b expressing NS3/4A protease A156V mutant infected in HuH7 cells. The format is functional, organism-based, Hepacivirus hominis. To be noted: Huh-7.
The subject of data set [8] is Hepatitis C virus. Briefly: Antiviral activity against Hepatitis C virus genotype 1b expressing NS3/4A protease […] mutant infected in HuH7 cells. In kind it is functional, organism-based, Hepacivirus hominis. To be noted: Huh-7.
For data set [9], the system named is Hepatitis C virus. Nature of the data set: Antiviral activity against Hepatitis C virus genotype 1b expressing NS3/4A protease R155K mutant infected in HuH7 cells. Conditions: Huh-7. In kind it is functional, organism-based, Hepacivirus hominis.
Data set [10] can be described thus: Apparent permeability of the compound at pH 7.05 by PAMPA assay. The format is ADME.
Data set [11] in a line: Oral bioavailability in rat. In kind it is ADME, organism-based. Conditions: in vivo.
Data set [12] can be described thus: Clearance in rat. The format is ADME, organism-based. Conditions: in vivo.
In data set [13] the test system is Hepatitis C virus. Nature of the data set: Antiviral activity against Hepatitis C virus genotype 1b expressing NS3/4A protease D168A mutant infected in HuH7 cells. To be noted: Hepacivirus hominis, Huh-7.

Each structure is given as a SMILES string.

The IC50 is the midpoint of a concentration-inhibition curve. Low values mean greater potency in that assay, high ones weaker potency in that assay. Broadly, the EC50 is the concentration at which the effect is half-maximal. As a reminder, the Papp is a coefficient for how fast a substance crosses the barrier. By bioavailability is commonly meant the share of a dose that reaches the circulation, judged against a reference dose that is usually intravenous. Read a low bioavailability as little systemic uptake. What is called clearance is the rate of elimination divided by the concentration. High values mean a high capacity for elimination, low ones a low capacity for elimination.

Compound `COc1ccc2c(O[C@@H]3C[C@H]4C(=O)N[C@]5(C(=O)NS(=O)(=O)C6CC6)C[C@H]5/C=C\CCCCCC(OC(=O)n5ccnc5)C(=O)N4C3)cc(-c3nc(C(C)C)cs3)nc2c1C` (stereo not given in full) came in with an IC50 in [1] of 3.2 nM. Moreover, the EC50 stood at 0.5 nM in the data set on Hepatitis C virus [2]; 0.8 nM in the data set with Hepatitis C virus [3]; 0.5 nM in the data set on Hepatitis C virus [4]; 0.1 nM in the data set on Hepatitis C virus [5]; 2.8 nM with Hepatitis C virus [6]; 3.9 nM in the data set on Hepatitis C virus [7]. The EC50 in the data set on Hepatitis C virus [8] came to 151 nM; with Hepatitis C virus [9], 47.9 nM; in the data set on Hepatitis C virus [13] it was 70 nM. Besides, in data set [10], the Papp was 1.2 ×10⁻⁶ cm/s. The compound also yielded a bioavailability in [11] of 12%. The clearance in [12] was 53.7 mL/min/kg.

Compound `COc1ccc2c(O[C@@H]3C[C@H]4C(=O)N[C@]5(C(=O)NS(=O)(=O)C6CC6)C[C@H]5/C=C\CCCCCC(O)C(=O)N4C3)cc(-c3nc(C(C)C)cs3)nc2c1C` (stereo not given in full) registered an IC50 in [1] of 6.8 nM. The concentration for a half-maximal effect (EC50) was found to be 0.8 nM with Hepatitis C virus [2]; 1 nM with Hepatitis C virus [3]; 1.3 nM in the data set on Hepatitis C virus [4]; 0.1 nM in the data set on Hepatitis C virus [5]; 2.6 nM with Hepatitis C virus [6]; 3.2 nM in the data set with Hepatitis C virus [7]. Besides, the EC50 was determined as 45.7 nM in the data set on Hepatitis C virus [8], 60.3 nM in the data set on Hepatitis C virus [9] and 62.8 nM in the data set with Hepatitis C virus [13].

Compound `CCOC1CCCCC/C=C\[C@@H]2C[C@@]2(C(=O)NS(=O)(=O)C2CC2)NC(=O)[C@@H]2C[C@@H](Oc3cc(-c4nc(C(C)C)cs4)nc4c(C)c(OC)ccc34)CN2C1=O` (stereo not given in full) displayed an IC50 in [1] of 107 nM. Further, the EC50 is 79.4 nM in the data set on Hepatitis C virus [2]; 251 nM in the data set on Hepatitis C virus [3]; 63.1 nM in the data set with Hepatitis C virus [4]; 29.4 nM in the data set on Hepatitis C virus [5]; 397 nM with Hepatitis C virus [6]; 434 nM in the data set with Hepatitis C virus [7]. The EC50 is 694 nM in the data set on Hepatitis C virus [8], 3980 nM in the data set on Hepatitis C virus [9] and 514 nM with Hepatitis C virus [13].

In turn, `CC(C)(C)OC(=O)N[C@H]1CCCCC/C=C\[C@@H]2C[C@@]2(C(=O)NS(=O)(=O)C2CC2)NC(=O)[C@@H]2C[C@@H](OC(=O)N3Cc4cccc(F)c4C3)CN2C1=O` [DANOPREVIR] returned an IC50 in data set [1] of 0.4 nM. For the same compound, the EC50 in the data set on Hepatitis C virus [4] was found to be 0.1 nM; in the data set on Hepatitis C virus [5], 1.6 nM; in the data set on Hepatitis C virus [6], 6.8 nM; in the data set on Hepatitis C virus [7] it was 8.3 nM; in the data set with Hepatitis C virus [8] it was 24.5 nM; in the data set with Hepatitis C virus [9], 80.8 nM. The same compound yielded an EC50 in the data set on Hepatitis C virus [13] of 48.5 nM.

`COc1ccc2c(O[C@@H]3C[C@H]4C(=O)N[C@]5(C(=O)NS(=O)(=O)C6CC6)C[C@H]5/C=C\CCCCCC(OC(=O)OC(C)(C)C)C(=O)N4C3)cc(-c3nc(C(C)C)cs3)nc2c1C` (stereo not given in full) returned a 50% inhibitory concentration (IC50) in data set [1] of 195 nM. Moreover, the values for the EC50 in the data set on Hepatitis C virus [2], in the data set with Hepatitis C virus [3] and in the data set with Hepatitis C virus [4] were 39.8 nM, 50.1 nM and 63.1 nM, respectively.

`COc1ccc2c(O[C@@H]3C[C@H]4C(=O)N[C@]5(C(=O)NS(=O)(=O)C6CC6)C[C@H]5/C=C\CCCCCC(OC(=O)NC(C)(C)C)C(=O)N4C3)cc(-c3nc(C(C)C)cs3)nc2c1C` (stereo not given in full) registered an IC50 in [1] of 31 nM. Besides, the EC50 in the data set on Hepatitis C virus [2] worked out at 0.8 nM; in the data set with Hepatitis C virus [3], 5 nM; in the data set on Hepatitis C virus [4], 1.2 nM; with Hepatitis C virus [5], 2.5 nM; in the data set on Hepatitis C virus [6], 84.6 nM; with Hepatitis C virus [7], 322 nM. Moreover, the EC50 with Hepatitis C virus [8] was 1070 nM; in the data set on Hepatitis C virus [9], 324 nM; in the data set on Hepatitis C virus [13], 462 nM.

Regarding `COc1ccc2c(O[C@@H]3C[C@H]4C(=O)N[C@]5(C(=O)NS(=O)(=O)C6CC6)C[C@H]5/C=C\CCCCCC(OC(=O)N5CCCCC5)C(=O)N4C3)cc(-c3nc(C(C)C)cs3)nc2c1C` (stereo not given in full), the IC50 in data set [1] was determined as 56.2 nM. Besides, the EC50 in the data set with Hepatitis C virus [2] was determined as 3.2 nM; with Hepatitis C virus [3], 10 nM; with Hepatitis C virus [4] it was 7.1 nM; in the data set with Hepatitis C virus [5], 9.7 nM; with Hepatitis C virus [6] it was 90.2 nM; in the data set with Hepatitis C virus [7] it was 658 nM. Besides, the values for the EC50 with Hepatitis C virus [8], with Hepatitis C virus [9] and in the data set with Hepatitis C virus [13] were 3980 nM, 1480 nM and 2150 nM, respectively.

The values are drawn from ChEMBL document CHEMBL2016556, “Discovery of novel P3-oxo inhibitor of hepatitis C virus NS3/4A serine protease” (Bioorg Med Chem Lett, 2012).
